The source made the active and inactive calls. The calls are words filed in the database; no cut-off is given here.
Legend:
[1] = biological target: Transitional endoplasmic reticulum ATPase (Homo sapiens, UniProt P55072); assay: Inhibition of p97 (unknown origin) using ATP as substrate incubated for 60 mins by ADP-Glo reagent based luminescence assay
HCT-116 [2] = assay: Anti-proliferative activity against human HCT-116 cells assessed as inhibition of cell proliferation incubated for 72 hrs by CellTiter-Glo luminescent assay; format: functional, cell-based; conditions: HCT-116, 72 h
[3] = Elimination half life in Sprague-Dawley rat at 1 mg/kg, iv measured for 24 hrs by LC-MS/MS analysis; format: ADME, organism-based; conditions: in vivo, read-out: beta t1/2 (converted)
[4] = AUC (0 to t) in Sprague-Dawley rat at 1 mg/kg, iv measured for 24 hrs by LC-MS/MS analysis; format: ADME, organism-based; set-up: time 24 hrs, dose 1 mg/kg, route iv; conditions: in vivo
[5] = AUC (0 to infinity) in Sprague-Dawley rat at 1 mg/kg, iv by LC-MS/MS analysis; format: ADME, organism-based; set-up: time infinity, dose 1 mg/kg, route iv; conditions: in vivo
[6] = MRT in Sprague-Dawley rat at 1 mg/kg, iv measured for 24 hrs by LC-MS/MS analysis; format: ADME, organism-based; conditions: in vivo
[7] = Cmax in Sprague-Dawley rat at 10 mg/kg, po measured for 30 hrs by LC-MS/MS analysis; format: ADME, organism-based; set-up: dose 10 mg/kg, time 30 hrs, route po; conditions: in vivo
[8] = Tmax in Sprague-Dawley rat at 10 mg/kg, po measured for 30 hrs by LC-MS/MS analysis; format: ADME, organism-based; conditions: in vivo
[9] = Elimination half life in Sprague-Dawley rat at 10 mg/kg, po measured for 30 hrs by LC-MS/MS analysis; format: ADME, organism-based; conditions: in vivo, read-out: beta t1/2 (converted)
[10] = AUC (0 to t) in Sprague-Dawley rat at 10 mg/kg, po measured for 30 hrs by LC-MS/MS analysis; format: ADME, organism-based; set-up: dose 10 mg/kg, time 30 hrs, route po; conditions: in vivo
[11] = AUC (0 to infinity) in Sprague-Dawley rat at 10 mg/kg, po by LC-MS/MS analysis; format: ADME, organism-based; set-up: time infinity, dose 10 mg/kg, route po; conditions: in vivo
[12] = MRT in Sprague-Dawley rat at 10 mg/kg, po measured for 30 hrs by LC-MS/MS analysis; format: ADME, organism-based; conditions: in vivo
[13] = Oral bioavailability in Sprague-Dawley rat at 10 mg/kg measured for 30 hrs by LC-MS/MS analysis; format: ADME, organism-based; conditions: in vivo
[14] = Half life in human liver microsomes at 1 uM in presence of beta-NADPH measured for 60 mins by LC-MS/MS analysis; format: ADME, Microsome
[15] = Half life in mouse liver microsomes at 1 uM in presence of beta-NADPH measured for 60 mins by LC-MS/MS analysis; format: ADME, Microsome
[16] = Half life in rat liver microsomes at 1 uM in presence of beta-NADPH measured for 60 mins by LC-MS/MS analysis; format: ADME, Microsome
[17] = Half life in dog liver microsomes at 1 uM in presence of beta-NADPH measured for 60 mins by LC-MS/MS analysis; format: ADME, Canis lupus familiaris, Microsome
[18] = Half life in monkey liver microsomes at 1 uM in presence of beta-NADPH measured for 60 mins by LC-MS/MS analysis; format: ADME, Macaca mulatta, Microsome; conditions: rhesus monkey
[19] = Intrinsic clearance in human liver microsomes at 1 uM in presence of beta-NADPH measured for 60 mins by LC-MS/MS analysis; format: ADME, Microsome; conditions: read-out: CLH
[20] = Intrinsic clearance in mouse liver microsomes at 1 uM in presence of beta-NADPH measured for 60 mins by LC-MS/MS analysis; format: ADME, Microsome; conditions: read-out: CLH
[21] = Intrinsic clearance in rat liver microsomes at 1 uM in presence of beta-NADPH measured for 60 mins by LC-MS/MS analysis; format: ADME, Microsome; conditions: read-out: CLH
[22] = Intrinsic clearance in dog liver microsomes at 1 uM in presence of beta-NADPH measured for 60 mins by LC-MS/MS analysis; format: ADME, Canis lupus familiaris, Microsome; conditions: read-out: CLH
[23] = Intrinsic clearance in monkey liver microsomes at 1 uM in presence of beta-NADPH measured for 60 mins by LC-MS/MS analysis; format: ADME, Macaca mulatta, Microsome; conditions: rhesus monkey, read-out: CLH
[24] = Toxicity in BALB/c mouse xenografted with human HCT-116 cells assessed as body weight loss at 50 mg/kg, po qd for 21 days; format: organism-based; conditions: in vivo, 504 h, time 21 day
[25] = Toxicity in BALB/c mouse xenografted with human HCT-116 cells assessed as side effects at 50 mg/kg, po qd for 21 days; format: organism-based; conditions: in vivo, 504 h, time 21 day
[26] = Toxicity in BALB/c mouse xenografted with human HCT-116 cells assessed as side effects at 100 mg/kg, po measured on day 4; format: organism-based; conditions: in vivo, 96 h, time 4 day
[27] = Toxicity in BALB/c mouse xenografted with human HCT-116 cells assessed as body weight loss at 100 mg/kg, po measured on day 4; format: organism-based; conditions: in vivo, 96 h, time 4 day
[28] = Toxicity in BALB/c mouse xenografted with human HCT-116 cells assessed as animals death at 100 mg/kg, po measured on day 8; format: organism-based; conditions: in vivo, 192 h, time 8 day
[29] = Cmax in Sprague-Dawley rat at 1 mg/kg, iv measured for 24 hrs by LC-MS/MS analysis; format: ADME, organism-based; set-up: dose 1 mg/kg, time 24 hrs, route iv; conditions: in vivo
[30] = Tmax in Sprague-Dawley rat at 1 mg/kg, iv measured for 24 hrs by LC-MS/MS analysis; format: ADME, organism-based; conditions: in vivo
HCT-116 [31] = assay: Anti-tumor activity against human HCT-116 cells xenografted in BALB/c mouse assessed as reduction in tumor volume at 100 mg/kg, po qd for 21 days; format: functional, organism-based; conditions: time 21.0 day
[32] = Toxicity in BALB/c mouse xenografted with human HCT-116 cells assessed as body weight loss at 100 mg/kg, po qd for 21 days; format: organism-based; conditions: in vivo, 504 h, time 21 day
[33] = Toxicity in BALB/c mouse xenografted with human HCT-116 cells assessed as side effects at 100 mg/kg, po qd for 21 days; format: organism-based; conditions: in vivo, 504 h, time 21 day

Sequence of Transitional endoplasmic reticulum ATPase (P55072 whole entry): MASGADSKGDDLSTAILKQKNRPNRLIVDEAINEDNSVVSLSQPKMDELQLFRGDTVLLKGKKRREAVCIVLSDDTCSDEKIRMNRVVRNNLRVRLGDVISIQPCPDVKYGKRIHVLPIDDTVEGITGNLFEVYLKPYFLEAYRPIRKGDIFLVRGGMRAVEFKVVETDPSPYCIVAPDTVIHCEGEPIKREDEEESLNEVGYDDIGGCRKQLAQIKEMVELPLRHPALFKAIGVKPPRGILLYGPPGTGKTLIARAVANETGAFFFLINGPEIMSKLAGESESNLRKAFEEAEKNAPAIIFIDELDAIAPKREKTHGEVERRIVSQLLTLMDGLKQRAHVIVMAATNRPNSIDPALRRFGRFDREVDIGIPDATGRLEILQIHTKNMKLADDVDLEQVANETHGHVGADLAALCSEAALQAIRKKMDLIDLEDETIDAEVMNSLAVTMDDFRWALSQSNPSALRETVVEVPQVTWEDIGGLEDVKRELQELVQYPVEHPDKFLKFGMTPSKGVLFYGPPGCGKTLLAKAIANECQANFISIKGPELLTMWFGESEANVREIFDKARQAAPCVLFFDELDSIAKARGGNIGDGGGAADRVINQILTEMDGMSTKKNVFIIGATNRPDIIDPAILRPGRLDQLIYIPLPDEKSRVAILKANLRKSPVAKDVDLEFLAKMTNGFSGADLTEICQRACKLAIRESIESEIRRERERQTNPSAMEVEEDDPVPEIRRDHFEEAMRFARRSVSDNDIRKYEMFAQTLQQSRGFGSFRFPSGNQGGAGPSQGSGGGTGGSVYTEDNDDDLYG

Work on `CON(C)C(=O)c1cccc2c1cc(C)n2-c1nc2c(c(NCc3cccc(O)c3)n1)CCC2` yielded an IC50 [1] of 863 nM.
For `CCONC(=O)c1cccc2c1cc(C)n2-c1nc2c(c(NCc3cccc(B(O)O)c3)n1)CCC2`, the IC50 (HCT-116 [2]) was 1400 nM and the IC50 [1] was 72 nM.
In the case of `Cc1cc2c(C(N)=O)cccc2n1-c1nc2c(c(NCc3ccccc3)n1)CCCN2`, the IC50 (HCT-116 [2]) is reported as 700 nM, the IC50 [1] is reported as 44 nM and the half-life [3] is reported as 22.8 min. For the same compound, the AUC(0-t) at 24 h [4] was 390 ng·h/mL, the AUC(0-inf) [5] was 398 ng·h/mL and the MRT [6] was 25.2 min. The Cmax [7] was 444 ng/mL, the Tmax [8] was 30 min and the half-life [9] was 73.8 min. It also gave an AUC(0-t) at 30 h [10] of 779 ng·h/mL, an AUC(0-inf) [11] of 796 ng·h/mL and an MRT [12] of 96 min. For the same compound, the bioavailability [13] was 20%, the half-life at 1 µM [14] was 35.9 min and the half-life at 1 µM [15] was 19.1 min. It also gave a half-life at 1 µM [16] of 7.9 min, a half-life at 1 µM [17] of 33 min and a half-life at 1 µM [18] of 9.8 min. For the same compound, the microsomal CLint at 1 µM [19] was 36.5 µL/min/mg, the microsomal CLint at 1 µM [20] was 176 µL/min/mg and the microsomal CLint at 1 µM [21] was 318 µL/min/mg. For the same compound, the microsomal CLint at 1 µM [22] was 60 µL/min/mg, the microsomal CLint at 1 µM [23] was 203 µL/min/mg and the Activity [24] was “Non-Toxic”. For the same compound, the Activity [25] was “Non-Toxic”, the Activity [26] was “Toxic” and the Activity [27] was “Toxic”. The Activity [28] was “Toxic”.
Compound `Cc1cc2c(NC(=O)/C=C/c3ccccc3)cccc2n1-c1nc2c(c(NCc3cccc(O)c3)n1)CCC2` has an IC50 [1] of 3510 nM.
Work on `Cc1cc2c(NC(=O)c3ccco3)cccc2n1-c1nc2c(c(NCc3cccc(O)c3)n1)CCC2` yielded an IC50 (HCT-116 [2]) of 1200 nM and an IC50 [1] of 49 nM.
`C=CC(=O)Nc1cccc2c1cc(C)n2-c1nc2c(c(NCc3cccc(O)c3)n1)CCC2` showed an IC50 (HCT-116 [2]) of 1200 nM and an IC50 [1] of 26 nM.
`Cc1cc2c(C(N)=O)cccc2n1-c1nc2c(c(NCc3cccc(N)c3)n1)CCC2` gave an IC50 [1] of 154 nM.
`Cc1cc2c(C(=N)NO)cccc2n1-c1nc2c(c(NCc3cccc(O)c3)n1)CCC2` showed an IC50 (HCT-116 [2]) of 1100 nM and an IC50 [1] of 35 nM.
For `Cc1cc2c(NS(C)(=O)=O)cccc2n1-c1nc2c(c(NCc3cccc(O)c3)n1)CCC2`, the IC50 (HCT-116 [2]) was 800 nM and the IC50 [1] was 97 nM.
`CONC(=O)c1cccc2c1cc(C)n2-c1nc2c(c(NCc3cccc(O)c3)n1)CCC2` gave an IC50 (HCT-116 [2]) of 300 nM, an IC50 [1] of 48 nM and a half-life [3] of 50.4 min. For the same compound, the AUC(0-t) at 24 h [4] was 94.8 ng·h/mL, the AUC(0-inf) [5] was 108 ng·h/mL and the MRT [6] was 73.8 min. The Cmax [7] was 52.5 ng/mL, the Tmax [8] was 30 min and the half-life [9] was 153 min. For the same compound, the AUC(0-t) at 30 h [10] was 108 ng·h/mL, the AUC(0-inf) [11] was 121 ng·h/mL and the MRT [12] was 201 min. The bioavailability [13] was 11.1%.
In the case of `Cc1cc2c(NC(=O)c3cccs3)cccc2n1-c1nc2c(c(NCc3cccc(O)c3)n1)CCC2`, the IC50 [1] is reported as 185 nM.
`C/C=C/C(=O)Nc1cccc2c1cc(C)n2-c1nc2c(c(NCc3cccc(O)c3)n1)CCC2` gave an IC50 (HCT-116 [2]) of 2400 nM and an IC50 [1] of 96 nM.
`CON(C)C(=O)c1cccc2c1cc(C)n2-c1nc2c(c(NCc3cccc(B(O)O)c3)n1)CCC2` gave an IC50 [1] of 1220 nM.
Compound `Cc1cc2c(C(N)=O)cccc2n1-c1nc2c(c(NCc3cccc(O)c3)n1)CCC2` has an IC50 (HCT-116 [2]) of 400 nM, an IC50 [1] of 53 nM and a Cmax [29] of 284 ng/mL. For the same compound, the Tmax [30] was 4.8 min, the half-life [3] was 168 min and the AUC(0-t) at 24 h [4] was 142 ng·h/mL. It also gave an AUC(0-inf) [5] of 147 ng·h/mL, an MRT [6] of 67.2 min and a Cmax [7] of 130 ng/mL. For the same compound, the Tmax [8] was 30 min, the half-life [9] was 228 min and the AUC(0-t) at 30 h [10] was 283 ng·h/mL. The AUC(0-inf) [11] was 345 ng·h/mL, the MRT [12] was 276 min and the bioavailability [13] was 23.5%. It also gave a half-life at 1 µM [14] of 37.1 min, a half-life at 1 µM [15] of 28.8 min and a half-life at 1 µM [16] of 10.5 min. The half-life at 1 µM [17] was 34.8 min, the half-life at 1 µM [18] was 23.8 min and the microsomal CLint at 1 µM [19] was 37.4 µL/min/mg. It also gave a microsomal CLint at 1 µM [20] of 48.2 µL/min/mg, a microsomal CLint at 1 µM [21] of 132 µL/min/mg and a microsomal CLint at 1 µM [22] of 39.8 µL/min/mg. For the same compound, the microsomal CLint at 1 µM [23] was 58.2 µL/min/mg, the Activity (HCT-116 [31]) was “Active” and the Activity [32] was “Non-Toxic”. The Activity [33] was “Non-Toxic”.
Compound `Cc1cc2c(NC(=O)c3cscn3)cccc2n1-c1nc2c(c(NCc3cccc(O)c3)n1)CCC2` has an IC50 [1] of 216 nM.
For `COc1ccc(/C=C/C(=O)Nc2cccc3c2cc(C)n3-c2nc3c(c(NCc4cccc(O)c4)n2)CCC3)cc1`, the IC50 [1] was 2470 nM.
With `CCONC(=O)c1cccc2c1cc(C)n2-c1nc2c(c(NCc3cccc(O)c3)n1)CCC2` the IC50 (HCT-116 [2]) was 600 nM and the IC50 [1] was 31 nM.
With `CONC(=O)c1cccc2c1cc(C)n2-c1nc2c(c(NCc3cccc(B(O)O)c3)n1)CCC2` the IC50 (HCT-116 [2]) was 1000 nM and the IC50 [1] was 54 nM.
Compound `Cc1cc2c(C(=N)N)cccc2n1-c1nc2c(c(NCc3cccc(O)c3)n1)CCC2` has an IC50 [1] of 233 nM.

— ChEMBL document CHEMBL5096214, “Discovery of a new class of valosine containing protein (VCP/P97) inhibitors for the treatment of colorectal cancer” (Bioorg Med Chem, 2022)
